The source of these data is patent US11613538B2, “Method of inhibiting or reducing a viral infection” (PTC Therapeutics, Inc., priority 2009, dated 2023).

This experiment has as its system hypoxia-induced VEGF production in HeLa cells. Description: cells. It is filed as cell-based, human. The note with it: Homo sapiens, HeLa.
The term EC50 denotes the concentration that produces a half-maximal response. `CCOC(=O)N1CCc2c([nH]c3ccc(Cl)cc23)C1c1ccc(OCC(O)CO)cc1` (stereo not drawn) [Compound 1000] displayed an EC50 of 8 to 40 nM.
Consider `CC#CCOC(=O)N1CCc2c([nH]c3ccc(Cl)cc23)C1c1ccc(OCC(O)CN)cc1` (stereo not drawn) [Compound 1002], for which the EC50 is 40 to 200 nM.
Next, `CCOC(=O)N1CCc2c([nH]c3ccc(Cl)cc23)C1c1ccc(OCC(=O)N2CCN(CCOC)CC2)cc1` (stereo not drawn) [Compound 1003]: 8 to 40 nM; `CCOC(=O)N1CCc2c([nH]c3ccc(Cl)cc23)C1c1ccc(OCC(=O)NCCN2CCOCC2)cc1` (stereo not drawn) [Compound 1004]: 8 to 40 nM.
Turning to `COc1ccc(OC(=O)N2CCc3c([nH]c4ccc(Cl)cc34)C2c2ccc(OCCC3CCCN3C)cc2)cc1` (stereo not drawn) [Compound 1005], the EC50 lay in the range of 200 to 1000 nM.
For `CCOC(=O)N1CCc2c([nH]c3ccc(Cl)cc23)C1c1ccc(OCCC2CCCN2C)cc1` (stereo not drawn) [Compound 1006], the EC50 fell in the range of 40 to 200 nM.
In the case of `COC(=O)N1CCc2c([nH]c3ccc(Cl)cc23)C1c1ccc(OCCC2CCCN2C)cc1` (stereo not drawn) [Compound 1007], the EC50 lay within 40 to 200 nM.
Next, `CN1CCCC1CCOc1ccc(C2c3[nH]c4ccc(Cl)cc4c3CCN2C(=O)Oc2ccc(F)cc2)cc1` (stereo not drawn) [Compound 1008]: 40 to 200 nM; `COC(=O)N1CCc2c([nH]c3ccc(Cl)cc23)C1c1ccc(OCC2CCCCN2C)cc1` (stereo not drawn) [Compound 1010]: 40 to 200 nM.
Next, `CCOC(=O)N1CCc2c([nH]c3ccc(Cl)cc23)C1c1ccc(OCC(=O)N2CCOCC2)cc1` (stereo not drawn) [Compound 1012]: 40 to 200 nM; `CCOC(=O)N1CCc2c([nH]c3ccc(Cl)cc23)C1c1ccc(OCC(=O)NCCO)cc1` (stereo not drawn) [Compound 1013]: 8 to 40 nM.
To `CCOC(=O)N1CCc2c([nH]c3ccc(Cl)cc23)C1c1ccc(OCC(=O)N2CCN(CCO)CC2)cc1` (stereo not drawn) [Compound 1014] belongs 40 to 200 nM; to `CCOC(=O)N1CCc2c([nH]c3ccc(Cl)cc23)C1c1ccc(OCC(=O)NCCOC)cc1` (stereo not drawn) [Compound 1015], 40 to 200 nM; to `O=C(Oc1ccc(Cl)cc1)N1CCc2c([nH]c3ccc(Cl)cc23)C1c1ccc(OCCCn2nccn2)cc1` (stereo not drawn) [Compound 1016], more than 1000 nM.
In the case of `O=C(Oc1ccc(F)cc1)N1CCc2c([nH]c3ccc(Cl)cc23)C1c1ccc(OCCCn2nccn2)cc1` (stereo not drawn) [Compound 1017], the EC50 was less than 8 nM.
To `CC#CCOC(=O)N1CCc2c([nH]c3ccc(Cl)cc23)C1c1ccc(OCC(O)CO)cc1` (stereo not drawn) [Compound 1018] belongs 8 to 40 nM.
`C#CCCOC(=O)N1CCc2c([nH]c3ccc(Cl)cc23)C1c1ccc(OCC(O)CO)cc1` (stereo not drawn) [Compound 1019] displayed an EC50 of 8 to 40 nM.
Next, `C#CCOC(=O)N1CCc2c([nH]c3ccc(Cl)cc23)C1c1ccc(OCC(O)CO)cc1` (stereo not drawn) [Compound 1020]: 8 to 40 nM.
To `COCCN1CCN(C(=O)COc2ccc(C3c4[nH]c5ccc(Cl)cc5c4CCN3C(=O)Oc3ccc(F)cc3)cc2)CC1` (stereo not drawn) [Compound 1021] belongs 40 to 200 nM.
Next, `O=C(COc1ccc(C2c3[nH]c4ccc(Cl)cc4c3CCN2C(=O)Oc2ccc(F)cc2)cc1)NCCN1CCOCC1` (stereo not drawn) [Compound 1022]: 40 to 200 nM; `O=C(COc1ccc(C2c3[nH]c4ccc(Cl)cc4c3CCN2C(=O)Oc2ccc(F)cc2)cc1)N1CCOCC1` (stereo not drawn) [Compound 1023]: 8 to 40 nM.
For the compound `CCN1CCN(C(=O)COc2ccc(C3c4[nH]c5ccc(Cl)cc5c4CCN3C(=O)Oc3ccc(F)cc3)cc2)CC1` (stereo not drawn) [Compound 1024], the EC50 lay in the range of 40 to 200 nM.
To `COCCN1CCN(C(=O)COc2ccc(C3c4[nH]c5ccc(Cl)cc5c4CCN3C(=O)Oc3ccc(OC)cc3)cc2)CC1` (stereo not drawn) [Compound 1025] belongs 40 to 200 nM; to `COc1ccc(OC(=O)N2CCc3c([nH]c4ccc(Cl)cc34)C2c2ccc(OCC(=O)NCCN3CCOCC3)cc2)cc1` (stereo not drawn) [Compound 1026], 8 to 40 nM; to `CCN1CCN(C(=O)COc2ccc(C3c4[nH]c5ccc(Cl)cc5c4CCN3C(=O)Oc3ccc(OC)cc3)cc2)CC1` (stereo not drawn) [Compound 1028], 40 to 200 nM.
To `COc1ccc(OC(=O)N2CCc3c([nH]c4ccc(Cl)cc34)C2c2ccc(OCC(=O)N3CCN(CCCN(C)C)CC3)cc2)cc1` (stereo not drawn) [Compound 1029] belongs more than 1000 nM.
To `COc1ccc(OC(=O)N2CCc3c([nH]c4ccc(Cl)cc34)C2c2ccc(OCCCN3CCOCC3)cc2)cc1` (stereo not drawn) [Compound 1030] belongs 8 to 40 nM; to `COC(=O)N1CCc2c([nH]c3ccc(Cl)cc23)C1c1ccc(OCC2OCCO2)cc1` (stereo not drawn) [Compound 1032], 8 to 40 nM; to `CCOC(=O)N1CCc2c([nH]c3ccc(Cl)cc23)C1c1ccc(OCC2OCCO2)cc1` (stereo not drawn) [Compound 1033], 8 to 40 nM.
On to `CCCOC(=O)N1CCc2c([nH]c3ccc(Cl)cc23)C1c1ccc(OCC2OCCO2)cc1` (stereo not drawn) [Compound 1034], for which the EC50 was less than 8 nM.
As for `CCCCOC(=O)N1CCc2c([nH]c3ccc(Cl)cc23)C1c1ccc(OCC2OCCO2)cc1` (stereo not drawn) [Compound 1035], the EC50 is less than 8 nM.
Consider `CC(C)COC(=O)N1CCc2c([nH]c3ccc(Cl)cc23)C1c1ccc(OCC2OCCO2)cc1` (stereo not drawn) [Compound 1037], for which the EC50 is less than 8 nM.
To `CC(C)(C)COC(=O)N1CCc2c([nH]c3ccc(Cl)cc23)C1c1ccc(OCC2OCCO2)cc1` (stereo not drawn) [Compound 1038] belongs less than 8 nM; to `O=C(OCCF)N1CCc2c([nH]c3ccc(Cl)cc23)C1c1ccc(OCC2OCCO2)cc1` (stereo not drawn) [Compound 1039], less than 8 nM.
To `O=C(OCCCl)N1CCc2c([nH]c3ccc(Cl)cc23)C1c1ccc(OCC2OCCO2)cc1` (stereo not drawn) [Compound 1040] belongs 8 to 40 nM.
Turning to `O=C(OCCCCl)N1CCc2c([nH]c3ccc(Cl)cc23)C1c1ccc(OCC2OCCO2)cc1` (stereo not drawn) [Compound 1041], the EC50 was in the range of 8 to 40 nM.
To `COCCOC(=O)N1CCc2c([nH]c3ccc(Cl)cc23)C1c1ccc(OCC2OCCO2)cc1` (stereo not drawn) [Compound 1042] belongs 8 to 40 nM; to `C=COC(=O)N1CCc2c([nH]c3ccc(Cl)cc23)C1c1ccc(OCC2OCCO2)cc1` (stereo not drawn) [Compound 1043], less than 8 nM.
Next, `C=CCOC(=O)N1CCc2c([nH]c3ccc(Cl)cc23)C1c1ccc(OCC2OCCO2)cc1` (stereo not drawn) [Compound 1044]: less than 8 nM; `C=CCCOC(=O)N1CCc2c([nH]c3ccc(Cl)cc23)C1c1ccc(OCC2OCCO2)cc1` (stereo not drawn) [Compound 1045]: less than 8 nM; `C=C(C)OC(=O)N1CCc2c([nH]c3ccc(Cl)cc23)C1c1ccc(OCC2OCCO2)cc1` (stereo not drawn) [Compound 1046]: 8 to 40 nM.
In turn, `CC#CCOC(=O)N1CCc2c([nH]c3ccc(Cl)cc23)C1c1ccc(OCC2OCCO2)cc1` (stereo not drawn) [Compound 1047] returned an EC50 of less than 8 nM.
Next, `C#CCOC(=O)N1CCc2c([nH]c3ccc(Cl)cc23)C1c1ccc(OCC2OCCO2)cc1` (stereo not drawn) [Compound 1048]: less than 8 nM; `C#CCCOC(=O)N1CCc2c([nH]c3ccc(Cl)cc23)C1c1ccc(OCC2OCCO2)cc1` (stereo not drawn) [Compound 1049]: less than 8 nM.
For `O=C(Oc1ccc(Cl)cc1)N1CCc2c([nH]c3ccc(Cl)cc23)C1c1ccc(OCC2OCCO2)cc1` (stereo not drawn) [Compound 1053], the 50% effective concentration (EC50) is less than 8 nM.
To `O=C(OCc1ccccc1)N1CCc2c([nH]c3ccc(Cl)cc23)C1c1ccc(OCC2OCCO2)cc1` (stereo not drawn) [Compound 1056] belongs less than 8 nM; to `O=C(OCc1ccccc1Cl)N1CCc2c([nH]c3ccc(Cl)cc23)C1c1ccc(OCC2OCCO2)cc1` (stereo not drawn) [Compound 1057], less than 8 nM; to `O=C(OCc1ccccc1)N1CCc2c([nH]c3ccc(Cl)cc23)C1c1ccc(OCCCO)cc1` (stereo not drawn) [Compound 1059], less than 8 nM.
With `C=CCOC(=O)N1CCc2c([nH]c3ccc(Cl)cc23)C1c1ccc(OCCCO)cc1` (stereo not drawn) [Compound 1060], the EC50 is less than 8 nM.
To `CC(C)COC(=O)N1CCc2c([nH]c3ccc(Cl)cc23)C1c1ccc(OCCCO)cc1` (stereo not drawn) [Compound 1061] belongs less than 8 nM; to `O=C(COc1ccc(C2c3[nH]c4ccc(Cl)cc4c3CCN2C(=O)Oc2ccc(F)cc2)cc1)NCCO` (stereo not drawn) [Compound 1063], 8 to 40 nM; to `O=C(COc1ccc(C2c3[nH]c4ccc(Cl)cc4c3CCN2C(=O)Oc2ccc(F)cc2)cc1)N1CCN(CCO)CC1` (stereo not drawn) [Compound 1064], 8 to 40 nM.
For the compound `O=C(Oc1ccc(Cl)cc1)N1CCc2c([nH]c3ccc(Cl)cc23)[C@@H]1c1ccc(OC[C@H](O)CN2CCOCC2)cc1` [Compound 1070], the EC50 is less than 8 nM.
Turning to `O=C(Oc1ccc(Cl)cc1)N1CCc2c([nH]c3ccc(Cl)cc23)[C@@H]1c1ccc(OC[C@@H](O)CN2CCOCC2)cc1` [Compound 1071], the EC50 was less than 8 nM.
For the compound `C=CCOC(=O)N1CCc2c([nH]c3ccc(Cl)cc23)C1c1ccc(OCCCN2CCN(C)CC2)cc1` (stereo not drawn) [Compound 1072], the EC50 was less than 8 nM.
Compound `CCOC(=O)N1CCc2c([nH]c3ccc(Cl)cc23)C1c1ccc(OCC(O)Cn2nccn2)cc1` (stereo not drawn) [Compound 1073] came in with an EC50 of less than 8 nM.
Regarding `CC(C)OC(=O)N1CCc2c([nH]c3ccc(Cl)cc23)C1c1ccc(OCCCO)cc1` (stereo not drawn) [Compound 1074], the concentration giving a half-maximal response (EC50) is less than 8 nM.
Next, `O=C(Oc1ccccc1)N1CCc2c([nH]c3ccc(Cl)cc23)C1c1ccc(OCCCN2CCOCC2)cc1` (stereo not drawn) [Compound 1075]: 8 to 40 nM.
Next, `CN1CCN(CCCOc2ccc(C3c4[nH]c5ccc(Cl)cc5c4CCN3C(=O)Oc3ccccc3)cc2)CC1` (stereo not drawn) [Compound 1076]: 40 to 200 nM.
Next, `C=CCOC(=O)N1CCc2c([nH]c3ccc(Cl)cc23)C1c1ccc(OCCCN2CCOCC2)cc1` (stereo not drawn) [Compound 1079]: less than 8 nM.
As for `C=CCOC(=O)N1CCc2c([nH]c3ccc(Cl)cc23)C1c1ccc(OCCCn2ccnn2)cc1` (stereo not drawn) [Compound 1080], the EC50 is less than 8 nM.
Next, `C=CCOC(=O)N1CCc2c([nH]c3ccc(Cl)cc23)C1c1ccc(OCCCn2nccn2)cc1` (stereo not drawn) [Compound 1081]: less than 8 nM; `COCCOC(=O)N1CCc2c([nH]c3ccc(Cl)cc23)C1c1ccc(OCCCn2ccnn2)cc1` (stereo not drawn) [Compound 1083]: 8 to 40 nM.
Next, `COCCOC(=O)N1CCc2c([nH]c3ccc(Cl)cc23)C1c1ccc(OCCCn2nccn2)cc1` (stereo not drawn) [Compound 1084]: 8 to 40 nM; `CCOC(=O)N1CCc2c([nH]c3ccc(Cl)cc23)C1c1ccc(OCC(O)CNC(=O)COC)cc1` (stereo not drawn) [Compound 1085]: less than 8 nM.
Next, `COc1cc(C2c3[nH]c4ccc(Cl)cc4c3CCN2C(=O)Oc2ccc(Cl)cc2)ccc1OCCN1CCOCC1` (stereo not drawn) [Compound 1092]: 8 to 40 nM.
